The nature of data set [1]: Duration of effect / period of action after administration in man. The data set is classed as in vivo. The method, then:
(§1) The Cetrorelix embonate (2:1) lyophilysate (30 mg), obtained according to Example 1, is resuspended in 2 mL of water for injection purposes and can then be administered parenterally, preferable subcutaneously (s.c.) or intramuscularly (i.m.)
(§2) For the s.c. administration, the bioavailability of the Cetrorelix embonate (2:1) is about 30 to 50% (100%=intravenously administered Cetrolix acetate). […] The duration of the effect depends on the dose; for a dose of 30 to 150 mg, it is 2 to 8 weeks or longer. The inventive Cetrorelix embonate (2:1) lyophilysate has already been investigated in Clinical Phase I in man.
(§3) The period of action exceeded 700 hours. The plasma level was constant at about 2 ng/mL 150 hours after the administration. The bioavailability was abut 40%.

A short description of data set [2]: Cetrorelix plasma concentration and bioavailability after administration of the Cetrorelix embonate (2:1) lyophilysate in man (Clinical Phase I). In kind it is in vivo. The method, then:
as §1, §2, §3

Here are results for 1 compound from US6780972B2, “Method for the synthesis of peptide salts, their use and the pharmaceutical preparations, containing peptide salts” (Zentaris GmbH, priority 2000, dated 2004).

Non-standard residues stand in square brackets, D forms with d. Residues, ends and D or L forms follow the SMILES beside them. dPhe(4-Cl) = N[C@H](Cc1ccc(Cl)cc1)C(=O)O; d2Nal = N[C@H](Cc1ccc2ccccc2c1)C(=O)O; dCit = NC(=O)NCCC[C@@H](N)C(=O)O; d3Pal = N[C@H](Cc1cccnc1)C(=O)O

As a reminder, the bioavailability is the share of a dose that reaches the circulation, judged against a reference dose that is usually intravenous. A lower bioavailability goes with little systemic uptake. With `CC(=O)N[C@H](Cc1ccc2ccccc2c1)C(=O)N[C@H](Cc1ccc(Cl)cc1)C(=O)N[C@H](Cc1cccnc1)C(=O)N[C@@H](CO)C(=O)N[C@@H](Cc1ccc(O)cc1)C(=O)N[C@H](CCCNC(N)=O)C(=O)N[C@@H](CC(C)C)C(=O)N[C@@H](CCCNC(=N)N)C(=O)N1CCC[C@H]1C(=O)N[C@H](C)C(N)=O` [Cetrorelix embonate (2:1), Cetrorelix embonate] (Ac-[d2Nal][dPhe(4-Cl)][d3Pal]SY[dCit]LRP[dA]-NH2; N-terminus and C-terminus assumed), the period of action entry in data set [1] (60 mg in man, FIG. 1) is “exceeded 700 hours”. Besides, the “duration of the effect” value in data set [1] (dose of 30 to 150 mg, depends on the dose, 'or longer') was in the range of 2 to 8 weeks. The “burst effect (ca. 100 ng/mL)” value in data set [2] (60 mg in man, FIG. 1) is recorded as “could not be detected”. In addition, the bioavailability was 30 to 50% in data set [2] (human, in vivo, subcutaneous, s.c. administration, 100% = intravenously administered Cetrolix acetate) and roughly 40% in data set [2] (human, plasma, 60 mg in man, FIG. 1). In addition, the level at 150 h in data set [2] (human, plasma, 60 mg in man, constant 150 hours after the administration, FIG. 1) is roughly 2 ng/mL. Also, in data set [2] (in patients), the burst effect result is given as “slight or even absent”.
